According to patent publication US20110045101A1, “FUNGICIDAL SUBSTITUTED AZOLES” (E.I. Du Pont De Nemours and Company, priority 2009, published 2011):
Marks after values point to notes of the source that are not given here.

Tests used:
Format in all cases: in vivo
Settings in all cases: 100 = 100% disease control
[1] = test system: Erysiphe graminis f. sp. tritici; experiment: Test J: wheat powdery mildew on wheat seedlings, sprayed the day before inoculation, visual disease rating
Procedure, shortened: (§1)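 Compounds were dissolved in acetone (3% of final volume), then suspended in 50/50 acetone/purified water with 250 ppm Trem® 014 surfactant. Suspensions at 200 ppm (some at 40 ppm) were sprayed to run-off, 200 ppm being equivalent to 500 g/ha.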

[2] = test system: Puccinia recondita f. sp. tritici; experiment: Test H: wheat leaf rust, test suspension sprayed after inoculation of wheat seedlings, visual disease rating
Procedure, shortened: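 Wheat seedlings inoculated with P. recondita spores, held 24 h saturated at 20 °C, then 2 days in growth chamber at 20 °C; compound suspension (acetone/water with Trem 014) sprayed to run-off afterwards. Rated visually; 200 ppm (≈500 g/ha) unless marked *, which denotes 40 ppm.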

Septoria nodorum = experiment: Test F: wheat glume blotch on wheat seedlings, sprayed the day before inoculation, visual disease rating
Procedure, shortened: as §1

Alternaria solani = experiment: Test D: tomato early blight, sprayed the day before inoculation, visual disease rating
Procedure, shortened: as §1

[3] = test system: Puccinia recondita f. sp. tritici; experiment: Test I: wheat leaf rust on wheat seedlings, sprayed the day before inoculation, visual disease rating
Procedure, shortened: as §1

Septoria tritici = experiment: Test G: wheat leaf blotch on wheat seedlings, sprayed the day before inoculation, visual disease rating
Procedure, shortened: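 Compounds dissolved in acetone (3% of final volume), then suspended in 50/50 acetone/water with 250 ppm Trem® 014 and sprayed to run-off on seedlings at 200 ppm (≈500 g/ha) or 40 ppm where marked. Inoculation with spores followed next day; visual rating after 48 h saturated at 24° C plus 19 days at 20° C.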

Botrytis cinerea = experiment: Test C: tomato Botrytis on tomato seedlings, sprayed the day before inoculation, visual disease rating
Procedure, shortened: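 Compounds were dissolved in acetone (3% of final volume), then suspended in 50/50 acetone/purified water containing 250 ppm polyhydric alcohol ester surfactant. Suspensions were sprayed to run-off on tomato seedlings at 200 ppm, equivalent to 500 g/ha, or at 40 ppm where marked.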

[4] = 200 ppm, 0 = no control relative to controls
[5] = 40 ppm (marked *), 0 = no control

SMILES: COc1ccc(F)c(-c2c(Cl)nc(Cl)n2-c2ccc(F)cc2)c1F [compound 390]
- Test J disease control rating [1, 4]: 100%
- Test H disease control rating [2, 4]: 18%
- Test F disease control rating (Septoria nodorum; [4]): 99%
- Test D disease control rating (Alternaria solani; [4]): 100%
- Test I disease control rating [3, 4]: 100%
- Test G disease control rating (Septoria tritici; [4]): 95%
- Test C disease control rating (Botrytis cinerea; [4]): 100%

SMILES: COc1ccc(F)c(-c2c(Cl)nc(Cl)n2-c2cccc(C)c2)c1F [compound 391]
- Test J disease control rating [1, 4]: 100%
- Test H disease control rating [2, 4]: 0%
- Test F disease control rating (Septoria nodorum; [4]): 0%
- Test D disease control rating (Alternaria solani; [4]): 99%
- Test I disease control rating [3, 4]: 99%
- Test G disease control rating (Septoria tritici; [4]): 94%
- Test C disease control rating (Botrytis cinerea; [4]): 100%

SMILES: COc1ccc(F)c(-c2c(Cl)nc(Cl)n2-c2ccc(Cl)c(F)c2)c1F [compound 392]
- Test J disease control rating [1, 4]: 100%
- Test H disease control rating [2, 4]: 60%
- Test F disease control rating (Septoria nodorum; [4]): 100%
- Test D disease control rating (Alternaria solani; [4]): 100%
- Test I disease control rating [3, 4]: 99%
- Test G disease control rating (Septoria tritici; [4]): 97%
- Test C disease control rating (Botrytis cinerea; [4]): 100%

SMILES: COc1ccc(F)c(-c2c(Cl)nc(C)n2-c2ccc(Cl)c(F)c2)c1F [compound 393]
- Test J disease control rating [1, 4]: 100%
- Test H disease control rating [2, 4]: 79%
- Test F disease control rating (Septoria nodorum; [4]): 99%
- Test D disease control rating (Alternaria solani; [4]): 100%
- Test I disease control rating [3, 4]: 99%
- Test G disease control rating (Septoria tritici; [4]): 95%
- Test C disease control rating (Botrytis cinerea; [4]): 99%

SMILES: Cn1c(-c2cnc(Cl)n2-c2ccc(Cl)cc2)nc(Cl)c1Br [compound 394]
- Test J disease control rating [1, 5]: 0* %
- Test H disease control rating [2, 5]: 0* %
- Test F disease control rating (Septoria nodorum; [5]): 0* %
- Test D disease control rating (Alternaria solani; [5]): 0* %
- Test I disease control rating [3, 5]: 45* %
- Test G disease control rating (Septoria tritici; [5]): 28* %
- Test C disease control rating (Botrytis cinerea; [5]): 3* %

SMILES: COc1cc(F)c(-n2c(Cl)nc(C)c2-c2ccc(Cl)cc2)c(F)c1 [compound 396]
- Test J disease control rating [1, 5]: 99* %
- Test H disease control rating [2, 5]: 0* %
- Test F disease control rating (Septoria nodorum; [5]): 99* %
- Test D disease control rating (Alternaria solani; [5]): 100* %
- Test I disease control rating [3, 5]: 100* %
- Test G disease control rating (Septoria tritici; [5]): 93* %
- Test C disease control rating (Botrytis cinerea; [5]): 100* %

SMILES: COc1cc(F)c(-n2c(Cl)nc(CCl)c2-c2ccc(Cl)cc2)c(F)c1 [compound 397]
- Test J disease control rating [1, 5]: 13* %
- Test H disease control rating [2, 5]: 0* %
- Test F disease control rating (Septoria nodorum; [5]): 0* %
- Test D disease control rating (Alternaria solani; [5]): 98* %
- Test I disease control rating [3, 5]: 88* %
- Test G disease control rating (Septoria tritici; [5]): 94* %
- Test C disease control rating (Botrytis cinerea; [5]): 100* %

SMILES: CCc1cccc(-n2c(Br)nc(Cl)c2-c2c(F)ccc(OC)c2F)c1 [compound 398]
- Test J disease control rating [1, 4]: 100%
- Test H disease control rating [2, 4]: 0%
- Test F disease control rating (Septoria nodorum; [4]): 79%
- Test D disease control rating (Alternaria solani; [4]): 80%
- Test I disease control rating [3, 4]: 79%
- Test G disease control rating (Septoria tritici; [4]): 96%
- Test C disease control rating (Botrytis cinerea; [4]): 100%

SMILES: COc1ccc(F)c(-c2c(Cl)nc(Cl)n2-c2ccc(Cl)c(C)c2)c1F [compound 399]
- Test J disease control rating [1, 4]: 100%
- Test H disease control rating [2, 4]: 0%
- Test F disease control rating (Septoria nodorum; [4]): 82%
- Test D disease control rating (Alternaria solani; [4]): 99%
- Test I disease control rating [3, 4]: 82%
- Test G disease control rating (Septoria tritici; [4]): 96%
- Test C disease control rating (Botrytis cinerea; [4]): 100%

SMILES: COc1ccc(F)c(-c2c(Cl)nc(Cl)n2-c2cccc(OC(F)F)c2)c1F [compound 400]
- Test J disease control rating [1, 4]: 100%
- Test H disease control rating [2, 4]: 0%
- Test F disease control rating (Septoria nodorum; [4]): 99%
- Test D disease control rating (Alternaria solani; [4]): 100%
- Test I disease control rating [3, 4]: 99%
- Test G disease control rating (Septoria tritici; [4]): 94%
- Test C disease control rating (Botrytis cinerea; [4]): 100%

SMILES: COc1ccc(F)c(-c2c(Cl)nc(Br)n2-c2ccc(Cl)c(C)c2)c1F [compound 401]
- Test J disease control rating [1, 4]: 100%
- Test H disease control rating [2, 4]: 0%
- Test F disease control rating (Septoria nodorum; [4]): 0%
- Test D disease control rating (Alternaria solani; [4]): 100%
- Test I disease control rating [3, 4]: 73%
- Test G disease control rating (Septoria tritici; [4]): 96%
- Test C disease control rating (Botrytis cinerea; [4]): 99%

SMILES: COc1ccc(F)c(-c2c(Cl)nc(Br)n2-c2cccc(OC(F)F)c2)c1F [compound 402]
- Test J disease control rating [1, 4]: 99%
- Test H disease control rating [2, 4]: 0%
- Test F disease control rating (Septoria nodorum; [4]): 99%
- Test D disease control rating (Alternaria solani; [4]): 100%
- Test I disease control rating [3, 4]: 94%
- Test G disease control rating (Septoria tritici; [4]): 96%
- Test C disease control rating (Botrytis cinerea; [4]): 100%

SMILES: Cc1ncc(Cc2ccc(F)cc2F)n1-c1ccc(Cl)cc1 [compound 403]
- Test J disease control rating [1, 4]: 86%
- Test H disease control rating [2, 4]: 0%
- Test F disease control rating (Septoria nodorum; [4]): 0%
- Test D disease control rating (Alternaria solani; [4]): 0%
- Test I disease control rating [3, 4]: 77%
- Test G disease control rating (Septoria tritici; [4]): 97%
- Test C disease control rating (Botrytis cinerea; [4]): 99%

SMILES: Cc1nc(Br)c(Cc2ccc(F)cc2F)n1-c1ccc(Cl)cc1 [compound 404]
- Test J disease control rating [1, 4]: 98%
- Test H disease control rating [2, 4]: 0%
- Test F disease control rating (Septoria nodorum; [4]): 0%
- Test D disease control rating (Alternaria solani; [4]): 0%
- Test I disease control rating [3, 4]: 97%
- Test G disease control rating (Septoria tritici; [4]): 99%
- Test C disease control rating (Botrytis cinerea; [4]): 100%

SMILES: COc1cc(F)c(-c2c(Cl)nc(Cl)n2-c2ccc(C)cc2)c(F)c1Cl [compound 405]
- Test J disease control rating [1, 4]: 99%
- Test H disease control rating [2, 4]: 0%
- Test F disease control rating (Septoria nodorum; [4]): 0%
- Test D disease control rating (Alternaria solani; [4]): 98%
- Test I disease control rating [3, 4]: 98%
- Test G disease control rating (Septoria tritici; [4]): 100%
- Test C disease control rating (Botrytis cinerea; [4]): 99%

SMILES: COc1cc(F)c(-c2c(Cl)nc(Cl)n2-c2ccc(Cl)nc2)c(F)c1 [compound 406]
- Test J disease control rating [1, 4]: 100%
- Test H disease control rating [2, 4]: 100%
- Test F disease control rating (Septoria nodorum; [4]): 100%
- Test D disease control rating (Alternaria solani; [4]): 100%
- Test I disease control rating [3, 4]: 100%
- Test G disease control rating (Septoria tritici; [4]): 93%
- Test C disease control rating (Botrytis cinerea; [4]): 100%
